According to patent US9744178B2, “Respirable agglomerates of porous carrier particles and micronized drug” (Novartis AG, priority 2013, dated 2017):

Assays:
[1] = Particle size (x50, x90) of micronized drug crystals; type: physicochemical; settings: micronized drug crystals used in the respirable agglomerates
Experimental: “Mass median diameter” or “MMD” or “×50” as used herein means the median diameter of a plurality of particles, typically in a polydisperse particle population, i.e., consisting of a range of particle sizes. MMD values as reported herein are determined by laser diffraction (Sympatec Helos, Clausthal-Zellerfeld, Germany), unless the context indicates otherwise.
An MMD or an ×50 (particle size distribution wherein 50% of the particles are sized smaller) of the micronized active ingredients should be less than about 3 micron (μm), preferably less than about 2 μm, or 1 μm. In embodiments of the invention, an ×50 is about 0.1-3 μm. An ×90 (particle size distribution wherein 90% of the particles are sized smaller) should be less than 7 μm, preferably less than 5 μm, or 3 μm.

[2] = Physical form of indacaterol acetate by X-ray powder diffraction; type: physicochemical; settings: for Physical stability of the salt form in water: suspended in water / aqueous feedstock to be spray-dried, acetate
Experimental: In the process of the present invention, an ordered mixture of micronized indacaterol acetate crystals and small porous particles are created by suspending the particles in a liquid perfluorocarbon, and then removing the liquid in a drying process. The physical form of the indacaterol acetate drug substance can be determined by X-ray powder diffraction (XRPD).
The pattern is dominated by the characteristic phospholipid peak at 20=21°. […] Peaks characteristic of indacaterol free base are not present.

[3] = Delivered dose uniformity from Concept1 dry powder inhaler; type: physicochemical; settings: each drug in respirable agglomerates Lot 11015A-7-6, size 3 hypromellose capsules, Concept1, 60 L/min, 2 L, on filter, RP-HPLC
Experimental: “Emitted Dose” or “ED” as used herein refers to an indication of the delivery of dry powder from an inhaler device after an actuation or dispersion event from a powder unit. ED is defined as the ratio of the dose delivered by an inhaler device to the nominal or metered dose. The ED is an experimentally determined parameter, and may be determined using an in vitro device set up which mimics patient dosing. It is sometimes also referred to as the Delivered Dose (DD). The ED is determined using a drug specific method such as high pressure liquid chromatography.
The bulk powder was filled into size 3 hypromellose capsules. The capsules were then individually filled into a Concept1 dry powder Inhaler (as described herein). The Concept1 Inhaler is a low resistance, capsule-based dry powder Inhaler. The device was emptied at a flow rate of 60 L/min and an inhaled volume of 2 L onto a filter. The mass of each Individual drug on the filter was quantitated by RP-HPLC. The total mass of powder on the filter was also determined gravimetrically.

β2-adrenoceptor = β2-adrenoceptor (Homo sapiens, UniProt P07550); settings: cited from earlier work
Chain of β2-adrenoceptor (P07550 whole entry, species assumed): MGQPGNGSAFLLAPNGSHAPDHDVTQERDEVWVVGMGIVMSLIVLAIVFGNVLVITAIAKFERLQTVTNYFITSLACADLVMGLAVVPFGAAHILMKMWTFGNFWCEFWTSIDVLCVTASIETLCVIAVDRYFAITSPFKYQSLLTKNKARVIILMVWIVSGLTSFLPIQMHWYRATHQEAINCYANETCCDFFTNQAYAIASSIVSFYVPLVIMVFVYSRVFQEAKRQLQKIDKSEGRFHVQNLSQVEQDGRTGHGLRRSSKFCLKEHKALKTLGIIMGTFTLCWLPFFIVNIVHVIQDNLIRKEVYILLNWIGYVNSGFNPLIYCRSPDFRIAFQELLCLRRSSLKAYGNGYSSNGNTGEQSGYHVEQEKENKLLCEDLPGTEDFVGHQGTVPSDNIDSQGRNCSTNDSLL

| Structure (SMILES) | ×50 [1] | ×90 [1] | Physical form after dispersion in PFOB ([2]; suspended in perfluorooctyl bromide, XRPD) | Physical stability of the salt form in water [2] | Physical stability of the salt form in water ([2]; listed as Indacaterol acetate) | Mean delivered dose (% nominal) [3] | Duration of action (β2-adrenoceptor) | Onset of action (β2-adrenoceptor) |
| --- | --- | --- | --- | --- | --- | --- | --- | --- |
| CC(=O)O.CCc1cc2c(cc1CC)CC(NC[C@H](O)c1ccc(O)c3[nH]c(=O)ccc13)C2 [indacaterol acetate, (R)-5-[2-(5,6-diethyl-indan-2-ylamino)-1-hydroxyethyl]-8-hydroxy-1H-quinolin-2-one acetate] | 1.63 μm | 3.08 μm | salt form of the drug is maintained | rapidly disproportionates to form indacaterol free base and acetic acid | rapidly disproportionating to form indacaterol free base and acetic acid | 83.5 % nominal |  |  |
| C[N+]1(C)CCC(OC(=O)C(O)(c2ccccc2)C2CCCC2)C1.[Br-] (centres unmarked) [Glycopyrronium bromide, 3-[(cyclopentyl-hydroxyphenyl-acetyl)oxy]-1,1-dimethylpyrrolidinium bromide] | 2.96 μm | 6.52 μm |  |  |  | 82.1 % nominal |  |  |
| C[C@@H]1C[C@H]2[C@@H]3CCC4=CC(=O)C=C[C@]4(C)[C@@]3(Cl)[C@@H](O)C[C@]2(C)[C@@]1(OC(=O)c1ccco1)C(=O)CCl [mometasone furoate, (11β,16α)-9,21-dichloro-17-[(2-furanylcarbonyl)oxy]-11-hydroxy-16-methylpregna-1,4-diene-3,20-dione] | 1.22 μm | 2.45 μm |  |  |  | 84.8 % nominal |  |  |
| CCc1cc2c(cc1CC)CC(NC[C@H](O)c1ccc(O)c3[nH]c(=O)ccc13)C2 [indacaterol, (R)-5-[2-(5,6-diethyl-indan-2-ylamino)-1-hydroxyethyl]-8-hydroxy-1H-quinolin-2-one] |  |  |  |  |  |  | over 24 hours | about 10 minutes |
